# Reference: patent US20150342954A1, “2-BENZYL, 3-(PYRIMIDIN-2-YL) SUBSTITUTED PYRAZOLES USEFUL AS SGC STIMULATORS” (IRONWOOD PHARMACEUTICALS, INC., priority 2011, published 2015)
# Like-named read-outs stand apart in the source and are kept apart here.
# Tests used:
# [1] = target: T1, soluble guanylate cyclase (sGC) (Homo sapiens, UniProt Q02108+Q02153); assay: sGC-HEK-cGMP assay (run with SNP incubation); format: cell-based; conditions: for Emax: 10 μM SNP, 100% = 30 μM BAY 41-2272 with 10 μM SNP, read-out: HEK assay Emax-unconstrained (Percent); for HEK MEC-10: concentration that would elicit 10% of the Emax in the presence of 10 μM SNP; for EC50: in the presence of 10 μM SNP
# T1 construct: endogenously expressing soluble guanylate cyclase (sGC); endogenous in cells; host or cells: HEK293
# T1 sequence (Q02153 1-619): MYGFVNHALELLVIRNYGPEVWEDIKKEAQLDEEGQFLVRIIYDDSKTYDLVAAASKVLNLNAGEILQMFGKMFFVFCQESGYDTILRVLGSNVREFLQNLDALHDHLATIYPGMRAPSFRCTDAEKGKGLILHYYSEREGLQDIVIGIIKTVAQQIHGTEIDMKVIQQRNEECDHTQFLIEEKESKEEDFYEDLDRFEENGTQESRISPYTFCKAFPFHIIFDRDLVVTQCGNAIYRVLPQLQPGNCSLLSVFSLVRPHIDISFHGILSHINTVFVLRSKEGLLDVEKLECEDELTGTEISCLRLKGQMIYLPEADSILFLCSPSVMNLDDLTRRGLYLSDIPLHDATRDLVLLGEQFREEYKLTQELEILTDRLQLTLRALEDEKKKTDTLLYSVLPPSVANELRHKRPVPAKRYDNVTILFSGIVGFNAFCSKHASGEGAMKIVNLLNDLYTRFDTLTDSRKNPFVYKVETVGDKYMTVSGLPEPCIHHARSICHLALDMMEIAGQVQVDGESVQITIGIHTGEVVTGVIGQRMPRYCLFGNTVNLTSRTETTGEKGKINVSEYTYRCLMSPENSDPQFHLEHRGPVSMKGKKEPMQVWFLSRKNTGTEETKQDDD
# T1 sequence (Q02108 1-690): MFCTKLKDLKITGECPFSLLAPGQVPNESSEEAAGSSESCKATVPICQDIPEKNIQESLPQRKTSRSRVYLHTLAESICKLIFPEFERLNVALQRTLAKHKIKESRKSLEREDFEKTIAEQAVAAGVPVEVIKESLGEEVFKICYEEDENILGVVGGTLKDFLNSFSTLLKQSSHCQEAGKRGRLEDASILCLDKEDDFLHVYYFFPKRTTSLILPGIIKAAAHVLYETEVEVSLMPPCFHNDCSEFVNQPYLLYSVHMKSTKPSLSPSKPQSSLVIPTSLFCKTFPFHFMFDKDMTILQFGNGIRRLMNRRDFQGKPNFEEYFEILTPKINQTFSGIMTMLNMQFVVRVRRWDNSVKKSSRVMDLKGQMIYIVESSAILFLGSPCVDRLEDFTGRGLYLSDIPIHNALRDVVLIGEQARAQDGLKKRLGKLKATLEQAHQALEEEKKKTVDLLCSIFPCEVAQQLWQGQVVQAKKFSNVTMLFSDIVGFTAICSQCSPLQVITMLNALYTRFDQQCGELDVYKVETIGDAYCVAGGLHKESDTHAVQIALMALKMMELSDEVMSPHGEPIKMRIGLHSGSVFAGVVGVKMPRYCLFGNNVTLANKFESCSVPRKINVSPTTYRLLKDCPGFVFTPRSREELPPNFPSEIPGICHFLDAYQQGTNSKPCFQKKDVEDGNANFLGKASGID
# Method: Biological Activity Measurement by the sGC-HEK-cGMP Assay
# (Assay Run with SNP Incubation)
# Human embryonic kidney cells (HEK293), endogenously expressing soluble guanylate cyclase (sGC), were used to evaluate the activity of test compounds. Compounds stimulating the sGC receptor should cause an increase in the intracellular concentration of cGMP. HEK 293 cells were seeded in Dulbecco's Modification of Eagle's Medium supplemented with fetal bovine serum (10% final) and L-glutamine (2 mM final) in a 2004 volume at a density of 1×10^5 cells/well in a poly-D-lysine coated 96 well flat bottom plate and grown overnight at 37° C. Medium was aspirated and cells were washed with 1× Hank's Buffered Saline Salt Solution (2004). Cells were then incubated for 15 minutes at 37° C. with 0.5 mM 3-isobutyl-1-methylxanthine (2004). Test article and sodium nitroprusside were then added to the assay mixture (24 each) and incubated at 37° C. for 10 minutes. After the 10 minute incubation, the assay mixture was aspirated and 0.1M HCl (2004) was added to the cells. The plate was incubated at 4° C. for 30 minutes in the 0.1M HCl to stop the reaction and lysed the cells. The plates were then centrifuged at 1,200 g for 5 minutes at room temperature. Supernatants were collected and transferred to a new flat bottom 96 well plate for analysis. Vehicle controls were carried out using DMSO (1%). A known sGC stimulator, BAY 41-2272, was used as the positive control. Samples were diluted with an equal volume of 1 M Ammonium Acetate (pH 7) to neutralize samples for better chromatography. A 2×cGMP standard curve was prepared in 0.1 M HCl and then diluted with an equal volume of 1 M Ammonium Acetate, with the following final concentrations in nM: 1024, 512, 256, 128, 64, 32, 16, 8, 4, 2, 1.cGMP concentrations were determined from each sample using the LC/MS conditions (Table 2 below) and calculated standard curve. EC50 values were calculated from concentration-response curves generated with GraphPad Prism Software.
# [2] = target: T2, Human soluble guanylate cyclase enzyme (hsGC) (Homo sapiens, UniProt Q02108+Q02153); assay: Purified human sGC enzyme synergy assay in the presence of 1 μM sodium nitroprusside (SNP); format: biochemical; conditions: compound at 30 μM, presence of 1 μM SNP
# T2 construct: purchased Enzo Inc. ALX-201-177
# T2 sequence (Q02153 1-619): T1 sequence (Q02153 1-619)
# T2 sequence (Q02108 1-690): T1 sequence (Q02108 1-690)
# Method: (§1) Human soluble guanylate cyclase enzyme (hsGC) obtained from Enzo Inc. (P/N: ALX-201-177) was used to evaluate the activity of test compounds. The assay reactions contained 0.1 M Tris (pH 8.0), 0.5 mg/mL BSA (pH 8.0), 2 mM DTT, 2 mM MgCl2, 300 μM GTP, 1 mM 3-isobutyl-1-methylxanthine (IBMX) and 5 ng human soluble guanylate cyclase enzyme. Test compounds in DMSO were then added (2 μL, 10 or 30 μM final concentration) and incubated (200 μL, 96-well plate format) at 37° C. for 30 minutes. The controls were carried out using 2 μL DMSO. After the 30 minute incubation, the reaction was stopped with the addition of 200 μl of cold methanol. The plate was then centrifuged at 3,200 rpm for 10 minutes at room temperature. Supernatants (200 μL) were collected and transferred to a new 96 well plate for analysis.
# (§2) An 8 point cGMP (Sigma-Aldrich P/N: G6129) standard curve was prepared in assay buffer ranging from 0.156-20 μM. Samples for the cGMP standard curve were then diluted with an equal volume of methanol resulting in final cGMP concentrations of 0.078-10 μM.
# (§3) The cGMP standard curve was generated using GraphPad Prism Software.
# (§4) Calculations: Specific Activity was determined by the amount of cGMP formed (nmoles) per mg of sGC per min. Enzyme “fold-change” was calculated by dividing Specific Activity for test compounds by Specific Activity of DMSO controls.
# Biological Measurement by the Purified Human sGC Enzyme Synergy Performed in the Presence of Sodium Nitroprusside (SNP), a Nitric Oxide Donor
# Enzyme assays were performed as described above, but was done in the absence or presence of 1 μM sodium nitroprusside (SNP).
# [3] = target: T2, Human soluble guanylate cyclase enzyme (hsGC); assay: Purified human sGC enzyme activity assay (without SNP); format: biochemical; conditions: compound at 30 μM, absence of SNP, fold over DMSO control
# Method: Biological Activity Measurements by the Purified Human sGC Enzyme Activity Assay
# as §1, §2, §3, §4
# [4] = Table 3A, top of concentration-response curve not fitted to 100%
# [5] = Table 3D, read-out: HEK assay EC50
# [6] = top of concentration-response curve not fitted to 100%, Table 3D, read-out: HEK assay EC50-unconstrained
# [7] = Table 3B, top of concentration-response curve not fitted to 100%
# [8] = Table 3E, read-out: HEK assay EC50
# [9] = top of concentration-response curve not fitted to 100%, Table 3E, read-out: HEK assay EC50-unconstrained
# [10] = Table 3C, top of concentration-response curve not fitted to 100%
# [11] = Table 3F, read-out: HEK assay EC50
# [12] = top of concentration-response curve not fitted to 100%, Table 3F, read-out: HEK assay EC50-unconstrained
"Emax [1, 4] [%]",HEK MEC-10 ([1]; Table 3D),"EC50 [1, 5] [µM]","EC50 [1, 6] [µM]",Enzyme Activity (increase at 30 μM with SNP) ([2]; Table 5A),Enzyme Activity (increase at 30 μM without SNP) ([3]; Table 5A),SMILES,also measured
10 to 20,E (10 to 50 μM),100 to 300,5 to 10,B (2 to <5 fold increase),A (no increase to <2 fold increase),Oc1nc(-c2cc(-c3ccon3)n(Cc3ccccc3F)n2)ncc1-c1ccsc1 [Compound 45],–
–,–,–,–,–,–,O=c1[nH]c(-c2cc(-c3ccccn3)n(Cc3ccccc3F)n2)ncc1F [Compound 68],"Emax [1, 7]: 40 to 60%; HEK MEC-10 ([1]; Table 3E): D (1 to <10 μM); EC50 [1, 8]: 40 to 60 µM; EC50 [1, 9]: 5 to 10 µM; Enzyme Activity (increase at 30 μM with SNP) ([2]; Table 5B): C (5 to <10 fold increase); Enzyme Activity (increase at 30 μM without SNP) ([3]; Table 5B): A (no increase to <2 fold increase)"
–,–,–,–,–,–,Cn1cnc2nc(-c3cc(-c4ccon4)n(Cc4ccccc4F)n3)ncc21 [Compound 109],"Emax [1, 10]: 40 to 60%; HEK MEC-10 ([1]; Table 3F): D (1 to <10 μM); EC50 [1, 11]: 40 to 60 µM; EC50 [1, 12]: 10 to 50 µM; Enzyme Activity (increase at 30 μM with SNP) ([2]; Table 5C): B (2 to <5 fold increase); Enzyme Activity (increase at 30 μM without SNP) ([3]; Table 5C): B (2 to <5 fold increase)"
40 to 60,D (1 to <10 μM),60 to 100,10 to 50,D (10 or <20 fold increase),B (2 to <5 fold increase),Fc1ccccc1Cn1nc(-c2ncc(Br)c(Cl)n2)cc1-c1ccon1 [Compound 52],–
–,–,–,–,–,–,Oc1nc(-c2cc(-c3ccoc3)n(Cc3ccccc3F)n2)ncc1F [Compound 87],"Emax [1, 7]: 40 to 60%; EC50 [1, 9]: 0.01 to 0.5 µM; Enzyme Activity (increase at 30 μM with SNP) ([2]; Table 5B): E (20 to 30 fold increase); Enzyme Activity (increase at 30 μM without SNP) ([3]; Table 5B): D (10 or <20 fold increase)"
–,–,–,–,–,–,Fc1ccccc1Cn1nc(-c2ncc3cn[nH]c3n2)cc1-c1ccon1 [Compound 113],"Emax [1, 10]: 20 to 40%; HEK MEC-10 ([1]; Table 3F): C (0.1 to <1 μM); EC50 [1, 11]: 20 to 40 µM; EC50 [1, 12]: 0.01 to 0.5 µM; Enzyme Activity (increase at 30 μM with SNP) ([2]; Table 5C): D (10 or <20 fold increase); Enzyme Activity (increase at 30 μM without SNP) ([3]; Table 5C): C (5 to <10 fold increase)"
40 to 60,C (0.1 to <1 μM),< 20,1 to 5,D (10 or <20 fold increase),B (2 to <5 fold increase),Oc1nc(-c2cc(-c3ccon3)n(Cc3ccccc3F)n2)ncc1-c1ccccn1 [Compound 43],–
100 to 120,A (0.001 to <0.01 μM),< 20,0.01 to 0.5,E (20 to 30 fold increase),D (10 or <20 fold increase),"Oc1nc(-c2cc(-c3ccon3)n(Cc3ccccc3F)n2)ncc1Sc1ccccc1 [Compound 39, 2-(1-(2-fluorobenzyl)-5-(isoxazol-3-yl)-1H-pyrazol-3-yl)-5-(phenylthio)pyrimidin-4-ol]",–
80 to 100,B (0.01 to <0.1 μM),< 20,0.5 to 1,D (10 or <20 fold increase),C (5 to <10 fold increase),Oc1nc(-c2cc(-c3ccon3)n(Cc3ccccc3)n2)ncc1F [Compound 41],–
–,–,–,–,–,–,O=c1[nH]c(-c2cc(-c3ccon3)n(Cc3ccc(F)cc3F)n2)ncc1F [Compound 70],"Emax [1, 7]: 40 to 60%; HEK MEC-10 ([1]; Table 3E): C (0.1 to <1 μM); EC50 [1, 8]: 40 to 60 µM; EC50 [1, 9]: 0.01 to 0.5 µM; Enzyme Activity (increase at 30 μM with SNP) ([2]; Table 5B): D (10 or <20 fold increase); Enzyme Activity (increase at 30 μM without SNP) ([3]; Table 5B): C (5 to <10 fold increase)"
40 to 60,D (1 to <10 μM),40 to 60,5 to 10,C (5 to <10 fold increase),A (no increase to <2 fold increase),O=c1[nH]c(-c2cc(-c3ccon3)n(Cc3ccccc3F)n2)nc(Cl)c1Cl [Compound 54],–
–,–,–,–,A (no increase to <2 fold increase),A (no increase to <2 fold increase),O=c1[nH]c(-c2cc(-c3ccon3)n(Cc3ccncc3F)n2)ncc1F [Compound 26],–
